Reference: ChEMBL document CHEMBL1150879, “Synthesis of (+/-)-cassumunins A and B, new curcuminoid antioxidants having protective activity of the living cell against oxidative damage” (J Nat Prod, 1998)

Tested on: Thymocyte
Test: Inhibition of H2O2-induced cell death of rat thymocyte assessed as cell viability
Assay type: functional, cell-based

Row | SMILES | IC50 [nM]
1 | COc1cc(/C=C/C(=O)CC(=O)/C=C/c2cc(OC)c(O)c(C(C)/C=C/c3ccc(OC)c(OC)c3)c2)ccc1O (stereo not drawn) [CASSUMUNIN A] | 170
2 | COc1cc(/C=C/C(=O)CC(=O)/C=C/c2cc(OC)c(O)c(C(C)/C=C/c3cc(OC)c(OC)cc3OC)c2)ccc1O (stereo not drawn) [CASSUMUNIN B] | 220
3 | COc1cc(/C=C/C(=O)CC(=O)/C=C/c2ccc(O)c(OC)c2)ccc1O [CURCUMIN] | 1020
